For test [1] the following is noted: background statement, cited from earlier work; for umami taste: aspartic acid at concentrations comparable to MSG.
Test [2] is described as follows: Flavourist tasting: umami and salt intensity of solution B versus reference solution A. The class given is in vivo. The following applies: scale -3 (much lower than base) to 3 (much higher), average of 4 flavourists. The text has this: The samples were tasted by a small group of flavourists (2 male, 2 female, aged between 30 and 60). The intensity of the umami and salt taste of solution B was compared with that of the reference (solution A) and rated according to the following intensity scale: […]

A short description of test [3]: Flavourist tasting: enhancement effect on NaCl, MSG and ribonucleotides. The format is in vivo. The following applies: effect marked between 0 and 10. The protocol:
Six solutions were prepared: • A a solution of 0.5% NaCl • B a solution of 0.5% NaCl and 0.03% MSG • C a solution of 0.5% NaCl and 0.015% ribonucleotides • D a solution of 0.5% NaCl and 10-50 ppm Example 1 compound • E a solution of 0.5% NaCl and 0.03% MSG and 10-50 ppm Example 1 compound • F a solution of 0.5% NaCl and 0.015% ribonucleotides and 10-50 ppm Example 1 compound The samples were tasted by a group of 5-10 flavourists aged between 30 and 60. The taste of solution D is compared with that of A to determine the enhancement effect of Example 1 compound on NaCl. Similarly, solution E is compared with solution B and solution F with solution C to determine the enhancement effect of Example 1 compound on MSG and ribonucleotides respectively. The effect is marked between 0 and 10, the greater the value the greater the effect.

Test [4] in a line: Flavourist comparison of test bouillon with reference bouillon. The following applies: 200 ppm in bouillon; 4 flavourists. The format is in vivo. As to the method:
A bouillon mix was prepared from 155.0 g of sodium chloride, 157.0 g of dextrose monohydrate (ex Tapioca), 0.2 g of celery oleoresin, 0.3 g of oleoresin turmeric Vegex, 0.2 g of oleoresin coriander seed, 444.8 g maltodextrin 5-8 DE, 40.0 g vegetable oil soya bean refined, 30.0 g yeast standard light, 4.0 g of onion powder, 4.0 g of garlic powder, 0.5 g of white pepper and 164.0 g of potato starch.
32 g of the well-mixed ingredients was added to 1 L of boiling water and stirred until completely dissolved.

Test [5] in a line: Flavourist comparison of test white sauce with reference white sauce. The class given is in vivo. The following applies: 4 flavourists. The protocol:
A white sauce mix was prepared from 380 g of modified starch Prejel, 200 g of whey powder Esprion 300, 200 g of fat powder (ex DMV), 115 g of sodium chloride, 85.3 g of maltodextrin 14, 3 g of onion powder, 0.2 g of curcuma extract powder (ex turmeric), 1.5 g of white pepper and 15 g of probase high impact.
80 g of the well-mixed ingredients was added to 1 L of boiling water and stirred well.

Test [6] can be described thus: Flavourist comparison of test Béchamel sauce with cheese with reference sauce. The class given is in vivo. The following applies: 4 flavourists. As to the method: A Béchamel sauce with cheese was prepared from 70 g of butter, 50 g of flower, 1000 g of milk, 5 g of sodium chloride, 0.3 g of MSG, 0.15 g of nutmeg powder, 0.25 g of black pepper and 80 g of cheese powder. A blanc roux was prepared from the butter and flower before adding the other ingredients.

Where [7] appears, read: 10 ppm in 0.5% NaCl and 0.03% MSG.
Where [8] appears, read: 20 ppm in 0.5% NaCl and 0.03% MSG.

With `CC(=O)[O-].[Na+]` [Sodium acetate], in test [1], the “taste of salts compared with sodium chloride” value was “hardly any taste”.

`[Cl][Pb][Cl]` [Lead chloride]: the “taste of salts compared with sodium chloride” value in test [1] was “tasting sweet”.

`O=C([O-])[C@H](O)[C@@H](O)[C@H](O)[C@H](O)CO.[Na+]` [sodium gluconate]: the “taste of salts compared with sodium chloride” value in test [1] was “hardly any taste”.

Turning to `NC(CC(C(=O)O)C(=O)O)C(=O)O` (racemic) [gamma-carboxy-DL-glutamic acid, Gamma-Carboxy-DL-Glutamic Acid], in test [2] (setting [7]), the “Intensity Taste Salt (NaCl)” value is given as 0.67 and the “Intensity Taste Umami” value is on record as 0.67. In addition, the “NaCl Taste” value in test [3] (10 ppm in 0.5% NaCl (solution D versus A, reference 0.0)) is reported as 2.0. The Ribo taste in test [3] (10 ppm in 0.5% NaCl and 0.015% ribonucleotides (solution F versus C, reference 5.0)) worked out at 5.5. Moreover, in test [3] (10 ppm in 0.5% NaCl and 0.03% MSG (solution E versus B, reference 5.0)), the MSG taste was 5.5. In test [4], the “taste of test bouillon compared with reference bouillon” value was “more umami, slightly more bitter, had more an ionic effect and salivating aftertaste than the reference bouillon”. For the same compound, the “taste of test white sauce compared with reference white sauce” value in test [5] (250 ppm in white sauce) was “more umami, more metallic, fuller, more long-lasting and slightly more salivating than the reference white sauce”. Moreover, in test [6] (350 ppm in Béchamel sauce with cheese), the “taste of test Béchamel sauce with cheese compared with reference” value was “more metallic, more ionic, more long-lasting and had more salivating effect than the reference Béchamel sauce”.

Consider `[Cl-].[K+]` [Potassium chloride], for which the “taste of salts compared with sodium chloride” value in test [1] is listed as “somewhat salty but clearly more bitter”.

For `N[C@@H](CC(=O)O)C(=O)O` [aspartic acid], in test [1], the umami taste entry is given as “hardly any umami taste”.

Regarding `CC(CC(N)C(=O)O)C(=O)O` (centres unmarked) [2-amino-4-methylpentanedioic acid, 2-amino-4-methylpentanedioic Acid], in test [2] (setting [8]), the “Intensity Taste Salt (NaCl)” value is recorded as 1.00 and the “Intensity Taste Umami” value came to 1.25.

In the case of `NC(CC(O)C(=O)O)C(=O)O` (centres unmarked) [4-hydroxyglutamic acid, 4-hydroxyglutamic Acid], in test [2] (setting [7]), the “Intensity Taste Salt (NaCl)” value is listed as 0.50 and the “Intensity Taste Umami” value was 0.50. Further, in test [3] (50 ppm in 0.5% NaCl (solution D versus A, reference 0.0)), the “NaCl Taste” value was determined as 1.7. In addition, the Ribo taste in test [3] (50 ppm in 0.5% NaCl and 0.015% ribonucleotides (solution F versus C, reference 5.0)) was 7.0. The MSG taste in test [3] (50 ppm in 0.5% NaCl and 0.03% MSG (solution E versus B, reference 5.0)) worked out at 5.7. Moreover, in test [4], the “taste of test bouillon compared with reference bouillon” value was “had an enhanced body of salt and was more salivating and more savoury-lingering than the reference bouillon”. For the same compound, the “taste of test white sauce compared with reference white sauce” value in test [5] (300 ppm in white sauce) is “had an enhanced body of salt and was more salivating and umami-like than the reference white sauce”. In addition, in test [6] (400 ppm in Béchamel sauce with cheese), the “taste of test Béchamel sauce with cheese compared with reference” value is “had more body, more mouthfullness and was creamier than the reference Béchamel sauce”.

For `N[C@@H](CCC(=O)O)C(=O)[O-].[Na+]` [MSG, monosodium glutamate], in test [1], the umami taste entry is reported as “highly potent umami tastant”.

Take `Cl.NC(CC(C(=O)O)c1ccccc1)C(=O)O` (centres unmarked) [2-amino-4-phenylpentanedioic acid, HCl, 2-amino-4-phenylpentanedioic Acid, HCl]: in test [2] (setting [7]), the “Intensity Taste Salt (NaCl)” value is recorded as 0.67 and the “Intensity Taste Umami” value turned out to be 0.00.

The values are drawn from patent US20140272065A1, “ORGANIC COMPOUNDS” (Givaudan S.A., priority 2011, published 2014).
